Holding throughout (type): functional
One assay deals with T1, Protein RecA (Mycobacterium tuberculosis, UniProt P9WHJ3).
T1 sequence (P9WHJ3 whole entry): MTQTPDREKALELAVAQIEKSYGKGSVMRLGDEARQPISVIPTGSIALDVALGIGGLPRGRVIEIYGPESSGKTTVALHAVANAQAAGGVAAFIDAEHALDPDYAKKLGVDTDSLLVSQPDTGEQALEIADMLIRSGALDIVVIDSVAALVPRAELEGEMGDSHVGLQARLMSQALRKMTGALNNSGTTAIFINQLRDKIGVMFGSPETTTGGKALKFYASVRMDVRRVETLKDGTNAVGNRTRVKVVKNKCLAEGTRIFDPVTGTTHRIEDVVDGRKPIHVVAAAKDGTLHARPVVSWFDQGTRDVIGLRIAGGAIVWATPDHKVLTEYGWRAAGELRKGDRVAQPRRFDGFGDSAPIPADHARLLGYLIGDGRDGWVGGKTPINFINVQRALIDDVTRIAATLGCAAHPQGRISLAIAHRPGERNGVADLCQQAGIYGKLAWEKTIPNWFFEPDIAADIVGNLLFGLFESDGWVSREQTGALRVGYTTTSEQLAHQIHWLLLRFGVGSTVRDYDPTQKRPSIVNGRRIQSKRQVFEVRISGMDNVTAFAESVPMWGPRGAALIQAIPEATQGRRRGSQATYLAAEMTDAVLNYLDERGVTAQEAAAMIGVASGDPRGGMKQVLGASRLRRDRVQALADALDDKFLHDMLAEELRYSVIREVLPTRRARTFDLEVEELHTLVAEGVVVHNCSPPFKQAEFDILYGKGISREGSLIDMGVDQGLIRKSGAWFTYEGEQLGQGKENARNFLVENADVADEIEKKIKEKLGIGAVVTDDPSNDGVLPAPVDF
The assay can be described thus: Fluorescence Cell-Free Homogeneous Dose Retest to Identify Inhibitors of RecA-Intein Splicing Activity. [Related pubchem assays (depositor defined):AID2097, AID2223, AID489010, AID492950].

For assay [1], the target named is T2, Serine/threonine-protein kinase D3 (Homo sapiens, UniProt O94806).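 Further: determined within a kinase panel screen, with PRKCN as the panel member.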
T2 sequence (O94806 whole entry): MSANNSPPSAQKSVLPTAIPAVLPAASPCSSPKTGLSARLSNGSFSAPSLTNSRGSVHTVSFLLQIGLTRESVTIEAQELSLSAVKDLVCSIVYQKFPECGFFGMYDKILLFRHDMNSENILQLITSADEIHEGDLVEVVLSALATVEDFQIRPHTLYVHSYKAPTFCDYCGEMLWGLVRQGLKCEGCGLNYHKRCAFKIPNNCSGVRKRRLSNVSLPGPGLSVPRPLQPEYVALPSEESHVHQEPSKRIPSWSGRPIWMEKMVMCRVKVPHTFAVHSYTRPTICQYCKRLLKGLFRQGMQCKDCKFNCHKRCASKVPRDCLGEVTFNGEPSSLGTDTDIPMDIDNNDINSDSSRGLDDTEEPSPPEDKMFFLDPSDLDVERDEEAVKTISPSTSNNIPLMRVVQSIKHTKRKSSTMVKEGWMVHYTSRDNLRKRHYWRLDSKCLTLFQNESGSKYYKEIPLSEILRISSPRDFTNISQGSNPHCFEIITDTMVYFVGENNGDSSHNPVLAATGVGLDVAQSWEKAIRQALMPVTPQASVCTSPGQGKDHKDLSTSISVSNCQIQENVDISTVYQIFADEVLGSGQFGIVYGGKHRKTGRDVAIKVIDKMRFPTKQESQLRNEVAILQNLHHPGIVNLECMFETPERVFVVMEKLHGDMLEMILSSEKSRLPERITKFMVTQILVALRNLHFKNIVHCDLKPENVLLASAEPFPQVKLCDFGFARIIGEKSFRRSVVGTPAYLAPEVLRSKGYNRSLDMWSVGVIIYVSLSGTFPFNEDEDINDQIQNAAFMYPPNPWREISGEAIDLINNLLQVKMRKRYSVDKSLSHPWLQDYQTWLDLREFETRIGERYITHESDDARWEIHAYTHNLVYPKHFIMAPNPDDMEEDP

In assay [2] the target is Tyrosine-protein kinase Lck (Homo sapiens, UniProt P06239).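 Further: lck was assayed as one member of a kinase panel.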
Tyrosine-protein kinase Lck, sequence (P06239 whole entry): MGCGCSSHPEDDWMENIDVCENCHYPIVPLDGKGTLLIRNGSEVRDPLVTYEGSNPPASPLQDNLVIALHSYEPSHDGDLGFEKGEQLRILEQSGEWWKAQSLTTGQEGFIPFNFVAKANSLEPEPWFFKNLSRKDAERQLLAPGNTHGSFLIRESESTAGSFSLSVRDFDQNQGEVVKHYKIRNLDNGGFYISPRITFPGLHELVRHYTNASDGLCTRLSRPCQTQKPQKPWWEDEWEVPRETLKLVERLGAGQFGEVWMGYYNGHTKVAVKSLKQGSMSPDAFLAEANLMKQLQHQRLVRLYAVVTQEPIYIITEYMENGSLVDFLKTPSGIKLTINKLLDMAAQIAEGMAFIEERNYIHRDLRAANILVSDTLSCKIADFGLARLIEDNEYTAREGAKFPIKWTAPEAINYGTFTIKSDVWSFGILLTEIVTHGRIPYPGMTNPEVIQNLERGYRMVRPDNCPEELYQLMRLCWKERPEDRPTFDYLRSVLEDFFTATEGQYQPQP
The target in assay [3] is Serine/threonine-protein kinase PAK 4 (Homo sapiens, UniProt O96013).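 Further: value obtained within a kinome profiling panel in which PAK4 was one of the panel members.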
Serine/threonine-protein kinase PAK 4, sequence (O96013 whole entry): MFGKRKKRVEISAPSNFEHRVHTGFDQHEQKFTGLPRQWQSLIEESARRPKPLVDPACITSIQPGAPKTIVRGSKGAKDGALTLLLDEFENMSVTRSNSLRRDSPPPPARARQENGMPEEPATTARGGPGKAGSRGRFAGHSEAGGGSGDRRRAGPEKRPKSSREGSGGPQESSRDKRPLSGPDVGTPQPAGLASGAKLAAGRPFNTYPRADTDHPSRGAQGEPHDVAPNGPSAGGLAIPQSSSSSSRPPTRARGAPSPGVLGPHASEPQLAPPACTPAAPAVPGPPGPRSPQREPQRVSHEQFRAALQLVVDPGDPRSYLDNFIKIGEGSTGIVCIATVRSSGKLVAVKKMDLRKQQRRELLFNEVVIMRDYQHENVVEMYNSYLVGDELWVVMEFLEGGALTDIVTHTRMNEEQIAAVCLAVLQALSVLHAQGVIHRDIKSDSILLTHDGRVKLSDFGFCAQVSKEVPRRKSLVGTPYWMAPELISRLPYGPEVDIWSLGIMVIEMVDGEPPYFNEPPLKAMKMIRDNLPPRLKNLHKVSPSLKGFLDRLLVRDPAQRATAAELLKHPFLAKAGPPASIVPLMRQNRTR
Assay [4] concerns the target Fibroblast growth factor receptor 1 (Homo sapiens, UniProt P11362).
In assay [5] the target is T3, Mitogen-activated protein kinase kinase kinase kinase 2 (Homo sapiens, UniProt Q12851).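 Further: measured as one member of a kinome-wide kinase panel, with MAP4K2 as the panel entry.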
T3 sequence (Q12851 whole entry): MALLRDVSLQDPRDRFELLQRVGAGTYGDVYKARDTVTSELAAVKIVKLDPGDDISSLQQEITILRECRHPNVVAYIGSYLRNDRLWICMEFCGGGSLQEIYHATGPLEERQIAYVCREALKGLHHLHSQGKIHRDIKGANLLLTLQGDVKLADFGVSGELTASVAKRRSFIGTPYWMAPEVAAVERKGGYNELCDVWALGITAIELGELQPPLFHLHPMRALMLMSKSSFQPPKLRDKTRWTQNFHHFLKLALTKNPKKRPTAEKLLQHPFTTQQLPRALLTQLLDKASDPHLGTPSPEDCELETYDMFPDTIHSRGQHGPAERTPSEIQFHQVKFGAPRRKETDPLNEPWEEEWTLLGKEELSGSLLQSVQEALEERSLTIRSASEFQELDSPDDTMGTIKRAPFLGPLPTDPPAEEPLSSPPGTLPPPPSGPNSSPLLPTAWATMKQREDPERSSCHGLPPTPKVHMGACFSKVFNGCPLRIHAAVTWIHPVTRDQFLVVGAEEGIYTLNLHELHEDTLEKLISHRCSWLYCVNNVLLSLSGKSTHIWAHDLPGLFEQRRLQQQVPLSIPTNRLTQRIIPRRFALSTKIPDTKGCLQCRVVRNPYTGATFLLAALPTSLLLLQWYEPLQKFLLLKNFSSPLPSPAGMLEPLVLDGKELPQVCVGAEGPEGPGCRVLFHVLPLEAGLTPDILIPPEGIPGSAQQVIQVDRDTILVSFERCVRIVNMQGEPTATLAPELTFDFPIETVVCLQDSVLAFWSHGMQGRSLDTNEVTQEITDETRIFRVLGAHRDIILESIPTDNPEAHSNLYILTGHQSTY

The target in assay [6] is Dual specificity tyrosine-phosphorylation-regulated kinase 1B (Homo sapiens, UniProt Q9Y463). Kind of assay: Navigating the Kinome. Panel member name: DYRK1B.
Dual specificity tyrosine-phosphorylation-regulated kinase 1B, sequence (Q9Y463 whole entry): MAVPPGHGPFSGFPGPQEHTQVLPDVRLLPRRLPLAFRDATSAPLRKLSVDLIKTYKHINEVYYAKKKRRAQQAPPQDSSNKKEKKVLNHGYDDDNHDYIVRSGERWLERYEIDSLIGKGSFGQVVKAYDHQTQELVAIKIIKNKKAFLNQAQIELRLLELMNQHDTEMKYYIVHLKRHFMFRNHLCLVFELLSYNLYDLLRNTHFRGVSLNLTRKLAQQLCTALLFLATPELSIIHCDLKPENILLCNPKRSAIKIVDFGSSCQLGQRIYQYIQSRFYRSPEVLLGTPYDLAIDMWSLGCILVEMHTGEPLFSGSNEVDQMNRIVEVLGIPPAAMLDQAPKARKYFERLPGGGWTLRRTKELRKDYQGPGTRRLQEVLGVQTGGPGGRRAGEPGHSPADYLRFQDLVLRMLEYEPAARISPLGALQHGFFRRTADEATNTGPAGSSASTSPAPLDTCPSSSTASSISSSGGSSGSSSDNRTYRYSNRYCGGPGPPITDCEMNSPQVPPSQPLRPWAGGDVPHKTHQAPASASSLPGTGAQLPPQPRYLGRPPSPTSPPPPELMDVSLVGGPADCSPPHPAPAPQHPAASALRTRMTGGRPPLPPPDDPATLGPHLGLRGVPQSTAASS
Assay [7] deals with Cyclin-dependent kinase 7 (Homo sapiens, UniProt P50613).
Cyclin-dependent kinase 7, sequence (P50613 whole entry): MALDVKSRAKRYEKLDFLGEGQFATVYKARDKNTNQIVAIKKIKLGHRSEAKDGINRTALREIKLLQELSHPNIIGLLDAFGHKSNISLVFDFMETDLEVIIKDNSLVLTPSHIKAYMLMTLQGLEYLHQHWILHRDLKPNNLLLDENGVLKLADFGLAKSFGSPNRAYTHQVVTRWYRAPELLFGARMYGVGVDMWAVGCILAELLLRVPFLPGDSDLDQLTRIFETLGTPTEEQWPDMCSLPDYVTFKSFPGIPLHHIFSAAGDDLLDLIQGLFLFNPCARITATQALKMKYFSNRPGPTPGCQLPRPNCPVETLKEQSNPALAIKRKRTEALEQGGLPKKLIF
In assay [8] the target is Glycogen synthase kinase-3 beta (Homo sapiens, UniProt P49841).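 Further: value comes from a broad kinome profiling panel, with GSK3B as the panel member.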
Glycogen synthase kinase-3 beta, sequence (P49841 whole entry): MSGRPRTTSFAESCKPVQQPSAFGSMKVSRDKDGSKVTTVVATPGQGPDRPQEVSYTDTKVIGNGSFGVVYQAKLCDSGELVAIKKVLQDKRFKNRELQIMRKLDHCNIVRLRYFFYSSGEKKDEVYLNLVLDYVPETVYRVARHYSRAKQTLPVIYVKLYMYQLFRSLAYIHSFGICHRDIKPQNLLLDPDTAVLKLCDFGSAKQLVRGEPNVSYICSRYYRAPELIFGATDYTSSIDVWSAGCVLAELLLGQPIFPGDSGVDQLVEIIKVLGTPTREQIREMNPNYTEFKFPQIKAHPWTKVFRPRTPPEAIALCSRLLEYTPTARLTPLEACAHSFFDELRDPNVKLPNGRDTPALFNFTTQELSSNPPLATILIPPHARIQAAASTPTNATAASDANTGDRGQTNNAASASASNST
In assay [9] the target is BDNF/NT-3 growth factors receptor (Homo sapiens, UniProt Q16620).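 Further: NTRK2 measured as one member of a broad kinome-wide kinase profiling panel.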
BDNF/NT-3 growth factors receptor, sequence (Q16620 whole entry): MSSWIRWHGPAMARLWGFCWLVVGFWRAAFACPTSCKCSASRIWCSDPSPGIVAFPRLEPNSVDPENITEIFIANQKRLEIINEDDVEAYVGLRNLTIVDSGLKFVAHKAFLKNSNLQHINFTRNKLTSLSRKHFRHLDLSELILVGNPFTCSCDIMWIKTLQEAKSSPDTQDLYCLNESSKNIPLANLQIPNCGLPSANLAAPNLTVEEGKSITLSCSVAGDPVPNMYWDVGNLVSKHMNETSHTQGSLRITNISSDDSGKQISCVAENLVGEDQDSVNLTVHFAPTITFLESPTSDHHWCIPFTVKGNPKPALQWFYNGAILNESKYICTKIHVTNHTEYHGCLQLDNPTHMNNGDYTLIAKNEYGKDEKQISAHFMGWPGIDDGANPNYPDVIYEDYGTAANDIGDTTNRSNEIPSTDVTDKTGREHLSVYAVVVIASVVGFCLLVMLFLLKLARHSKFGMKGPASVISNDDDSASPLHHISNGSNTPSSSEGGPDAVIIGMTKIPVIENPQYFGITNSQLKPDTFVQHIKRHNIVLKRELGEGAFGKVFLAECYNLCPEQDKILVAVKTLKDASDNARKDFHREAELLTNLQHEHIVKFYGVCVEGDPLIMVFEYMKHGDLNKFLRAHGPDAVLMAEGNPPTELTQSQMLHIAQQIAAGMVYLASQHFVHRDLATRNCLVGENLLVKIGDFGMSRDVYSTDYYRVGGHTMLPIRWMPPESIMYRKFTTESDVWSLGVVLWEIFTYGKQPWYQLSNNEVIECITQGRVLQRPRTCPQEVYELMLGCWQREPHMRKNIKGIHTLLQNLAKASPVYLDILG

Activity calls are given as the source filed them.

Fibroblast growth factor receptor 1, sequence (P11362 whole entry): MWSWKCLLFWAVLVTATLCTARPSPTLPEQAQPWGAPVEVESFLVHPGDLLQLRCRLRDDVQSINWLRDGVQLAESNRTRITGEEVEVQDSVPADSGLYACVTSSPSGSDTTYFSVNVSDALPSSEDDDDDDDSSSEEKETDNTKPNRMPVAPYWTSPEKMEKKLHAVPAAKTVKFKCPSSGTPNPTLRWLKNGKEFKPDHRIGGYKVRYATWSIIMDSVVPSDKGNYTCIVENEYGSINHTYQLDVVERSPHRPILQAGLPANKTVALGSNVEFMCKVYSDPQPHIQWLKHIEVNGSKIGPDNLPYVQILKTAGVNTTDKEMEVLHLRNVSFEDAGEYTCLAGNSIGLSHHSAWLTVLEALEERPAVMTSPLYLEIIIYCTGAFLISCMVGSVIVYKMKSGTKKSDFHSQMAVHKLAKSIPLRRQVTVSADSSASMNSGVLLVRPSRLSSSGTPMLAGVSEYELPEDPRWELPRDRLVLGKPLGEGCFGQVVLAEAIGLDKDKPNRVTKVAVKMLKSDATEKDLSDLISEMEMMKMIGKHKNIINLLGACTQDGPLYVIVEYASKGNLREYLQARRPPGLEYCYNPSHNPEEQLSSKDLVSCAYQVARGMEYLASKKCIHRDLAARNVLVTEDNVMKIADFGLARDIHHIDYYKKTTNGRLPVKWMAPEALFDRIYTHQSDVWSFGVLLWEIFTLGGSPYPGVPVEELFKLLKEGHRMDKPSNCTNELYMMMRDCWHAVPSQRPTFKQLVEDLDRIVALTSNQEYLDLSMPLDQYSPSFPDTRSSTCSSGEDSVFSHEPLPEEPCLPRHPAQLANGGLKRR

On to `CCOC(=O)c1ccc(NC2=CC(=O)C(=O)c3ccccc32)cc1`, for which the EC50 at Protein RecA is 3.24 µM (active).

As to `OC(CNCCC1C=Nc2ccccc21)Cn1c2ccc(Cl)cc2c2cc(Cl)ccc21` (stereo unspecified), the EC50 at Protein RecA is 9.52 µM (active).

For `CCCCCCCCCCCCCCCC[N+](C)(C)C`, on Protein RecA, the EC50 is 14.7 µM (active).

`NC1CCC(Nc2nc(Cl)cc(-c3c[nH]c4ncccc34)n2)CC1` (stereo unspecified): the inhibition constant Ki in assay [1] is 0.00501 µM (active); in assay [2], 3.16 µM (active); in [3], 0.0398 µM (active); in assay [4] it was 3.98 µM (active); in assay [5], 0.0631 µM (active); in assay [6] it was 0.0158 µM (active). Moreover, the Ki is 0.0501 µM (active) in assay [7], 0.398 µM (active) in assay [8] and 0.794 µM (active) in [9]. For the same compound, the pKi amounted to 8.3 in [1]; 5.5 in assay [2]; 7.4 in assay [3]; 5.4 in assay [4]; 7.2 in assay [5]; 7.8 in assay [6]. The pKi came to 7.3 in assay [7], 6.4 in [8] and 6.1 in assay [9].

`O=C(O)C1CN(Cc2ccc(OCc3ccccc3)cc2Cl)C1`: the Ki in assay [1] is > 3.98 µM (inactive); in [2], > 6.31 µM (inactive); in [3], > 5.01 µM (inactive); in assay [4], > 3.98 µM (inactive); in assay [5], > 2.51 µM (inactive); in assay [6], > 2.51 µM (inactive). In addition, the Ki in assay [7], in assay [8] and in [9] was > 3.98 µM (inactive) throughout.

Turning to `Cc1ccccc1-c1cc2c(nn1)-c1ccccc1C2=O`, the EC50 at Protein RecA was 0.891 µM (active).
